Measurements taken from article PMC9855333, “1-(Arylsulfonyl-isoindol-2-yl)piperazines as 5-HT6R Antagonists: Mechanochemical Synthesis, In Vitro Pharmacological Properties and Glioprotective Activity” (Biomolecules, 2022).

Columns and labels:
5-HT6R = 5-HT6R (Homo sapiens, UniProt P50406); assay: Basal cAMP production by constitutively active 5-HT6R in NG108-15 cells (CAMYEL BRET); assay type: cell-based; design: expressed in transfected cells; host or cells: NG108-15 (mouse neuroblastoma x rat glioma hybrid), transient co-transfection with CAMYEL, Lipofectamine 2000; settings: NG108-15 cells transiently expressing 5-HT6R
Procedure: Changes in cyclic AMP levels upon exposure to increasing concentrations of the tested compounds were assessed by BRET (Bioluminescence Resonance Energy Transfer) measurement using a Mithras LB 940 plate reader (Berthold Technologies), as previously described. A detailed description is reported in the Supporting Information.
2. Procedure for determination of functional activity at Gs signaling
2.1. Impact of compound 3e, 3f and 3g on cAMP production in 1321N1 cells The properties of evaluated compounds to inhibit cAMP production induced by 5-CT (1000 nM), a 5-HT6R agonist, was assessed according to previously published procedures. The level of cAMP was measured using frozen recombinant 1321N1 cells expressing the human serotonin 5-HT6R (PerkinElmer). Total cAMP was measured using the LANCE cAMP detection kit (PerkinElmer), according to the manufacturer's recommendations. For quantification of cAMP levels, 2000 cells/well (5 μL) were incubated with mixture of compound 3e, 3f and 3g (5 μL) for 30 min at room temperature in 384-well white opaque microtiter plate. After incubation, the reaction was stopped and cells were lysed by the addition of 10 μL of working solution (5 μL Eu-cAMP and 5 μL ULight-anti-cAMP) for 1 h at room temperature. Time-resolved fluorescence resonance energy transfer (TR-FRET) was detected by an Infinite M1000 Pro (Tecan) using instrument settings from LANCE cAMP detection kit manual. Compound was tested in triplicate at 8 concentrations (10-11–10-4 M). Kb values were calculated from Cheng–Prusoff equation specific for the analysis of functional inhibition curves:
Kb = IC50/(1+A/EC50) where A represents agonist concentration, IC50 the concentration of antagonist producing a 50% reduction in the response to agonist, and EC50 the agonist concentration which causes a half of the maximal response.
1.1.1. Impact of evaluated compounds on cAMP production elicited by constitutively active […]
BRET was measured using a Mithras LB 940 plate reader (Berthold Technologies). […]

[1] = test system: 5-HT6R-operated Cdk5 signaling; assay: Cdk5-dependent neurite growth in NG108-15 cells transiently expressing 5-HT6R; assay type: cell-based; settings: NG108-15 cells expressing 5-HT6R; for neurite length: treatment for 24 h (legend says 48 h), vehicle 16.95 ± 1.5 μm
Procedure: NG108-15 cells were transfected with plasmids encoding either cytosolic GFP or a GFP-tagged 5-HT6R and grown on glass coverslips for 6 h. Then, cells were treated with either vehicle or the evaluated compounds. Neurite growth was measured on cells imaged using an AxioImagerZ1 microscope equipped with epifluorescence (Zeiss) using the Neuron J plugin of the ImageJ software (NIH). A detailed description is reported in the Supporting Information.
3. Procedure for evaluation of the effect of tested compounds on Cdk5-dependent neurite
In line with previously reported methods, NG108-15 cells were transfected with plasmids encoding either cytosolic GFP or a GFP-tagged 5-HT6R in suspension using Lipofectamine 2000 (Life technologies) and plated on glass coverslips. Six hours after transfection, cells were treated with either DMSO (control), 3e, 3f and 3g or SB-258585 for 48 h. Cells were fixed in 4% paraformaldehyde (PFA) supplemented with 4% sucrose for 10 min. PFA fluorescence was quenched by incubating the cells in PBS containing 0.1 M glycine, prior to mounting in Prolong Gold antifade reagent (Thermo Fisher Scientific). Cells were imaged using an AxioImagerZ1 microscope equipped with epifluorescence (Zeiss), using a 20 × objective for cultured cells, and neurite length was assessed using the Neuron J plugin of the ImageJ software (NIH).

[2] = target: T1, human serotonin 5-HT2A receptor (Homo sapiens, UniProt P28223); assay: Radioligand binding, [3H]-ketanserin displacement, CHO-K1 cells; settings: mean ± SEM, three independent binding experiments; read-out: Ki [nM] 5-HT2AR
T1 construct: host or cells: CHO-K1
T1 sequence (P28223 whole entry): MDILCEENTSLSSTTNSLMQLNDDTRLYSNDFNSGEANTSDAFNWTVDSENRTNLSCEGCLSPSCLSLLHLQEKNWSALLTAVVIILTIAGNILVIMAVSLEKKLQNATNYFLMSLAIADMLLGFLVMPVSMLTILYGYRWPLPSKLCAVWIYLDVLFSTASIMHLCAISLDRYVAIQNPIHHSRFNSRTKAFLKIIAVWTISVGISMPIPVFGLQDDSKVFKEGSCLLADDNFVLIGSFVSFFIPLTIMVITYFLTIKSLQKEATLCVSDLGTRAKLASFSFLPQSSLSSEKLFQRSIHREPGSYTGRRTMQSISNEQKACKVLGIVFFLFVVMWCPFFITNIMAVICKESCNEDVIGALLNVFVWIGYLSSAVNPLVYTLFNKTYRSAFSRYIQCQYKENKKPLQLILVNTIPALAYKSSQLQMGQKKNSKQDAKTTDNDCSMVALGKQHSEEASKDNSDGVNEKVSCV

Sequence of 5-HT6R (P50406 whole entry): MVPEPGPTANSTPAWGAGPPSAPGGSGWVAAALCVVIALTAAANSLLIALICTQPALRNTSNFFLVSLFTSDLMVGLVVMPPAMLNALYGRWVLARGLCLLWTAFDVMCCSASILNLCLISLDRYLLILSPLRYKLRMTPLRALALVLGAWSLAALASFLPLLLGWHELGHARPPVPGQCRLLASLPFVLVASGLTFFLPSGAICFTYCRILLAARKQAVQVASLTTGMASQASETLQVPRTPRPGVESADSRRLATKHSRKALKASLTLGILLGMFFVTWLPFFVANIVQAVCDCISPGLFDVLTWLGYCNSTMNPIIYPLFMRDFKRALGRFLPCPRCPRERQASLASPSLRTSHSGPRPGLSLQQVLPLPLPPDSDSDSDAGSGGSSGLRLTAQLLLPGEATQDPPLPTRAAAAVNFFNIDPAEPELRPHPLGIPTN

| SMILES | 5-HT6R Functional Profile at Gs Signaling (5-HT6R) | neurite length [1] [μm] | Ki [2] [nM] | reduction in neurite growth ([1]; vs vehicle-treated cells) [%] | functional profile at the 5-HT6R-elicited Cdk5 pathway ([1]; neurite growth) |
| --- | --- | --- | --- | --- | --- |
| O=S(=O)(c1cccc(N2CCNCC2)c1)N1Cc2ccccc2C1 [3e, 2-{[3-(Piperazin-1-yl)phenyl]sulfonyl}isoindoline] | Neutral antagonist | 11.81 ± 2.61 | 128 ± 37 |  |  |
| O=S(=O)(c1cccc(N2CCNCC2)c1)N1Cc2cccc(Br)c2C1 [3g, 4-Bromo-2-{[3-(piperazin-1-yl)phenyl]sulfonyl}isoindoline] | Neutral antagonist | 8.08 ± 0.84 | 159 ± 25 | 50 | potent inverse agonist |
| O=S(=O)(c1cccc(N2CCNCC2)c1)N1Cc2cccc(Cl)c2C1 [3f, 4-Chloro-2-{[3-(piperazin-1-yl)phenyl]sulfonyl}isoindoline] | Neutral antagonist | 10.92 ± 0.89 | 170 ± 32 |  |  |
